No end group written: not given here. Cy5Q = cyanine dye quencher coupled to the N-terminus (from Cy5Q-NHS)
System: AspN
Assay: Endoproteinase AspN cleavage assay
Type: biochemical
Conditions: 2 μM, 500 μl, AspN 100 ng, overnight at ambient temperature, excitation 520 nm, emission 540-750 nm
Description: The fluorescence intensity of compound A (2 μM, 500 μl volume) in a quartz cuvette was recorded using a spectrofluorimeter. The sample was excited at 520 nm and emission over 540-750 nm recorded. AspN (100 ng, 50 μl volume) was added to the sample in the cuvette, which was stoppered, and kept dark at ambient temperature overnight. The fluorescence intensity was again recorded. […] Tween™ is a trademark of ICI Americas, Inc.

Substance: Cy5Q -Asp-Glu-Val-Asp-Arg-Ser-Gly-Ser-Gly-Ser-Cy3-Ala-Leu-Thr-OH (Cy5Q-DEVDRSGSGS; not fully specified (C-terminus)) [Compound A]
- Cy3 fluorescence on AspN-catalysed hydrolysis: increase in Cy3 fluorescence
